Columns and labels:
[1] = Hygroscopicity test of crystal form I (dynamic moisture adsorption instrument, DVS); format: physicochemical; details: for Weight gain percentage at 80% relative humidity: DVS, about 28 mg of crystal
Protocol: About 28 mg of the crystal obtained in Example 1 was taken. The hygroscopicity of the crystal was determined with dynamic moisture adsorption instrument in accordance with the above conditions. The weight gain of crystal form I was within 0.2% at 80% relative humidity.

[2] = Particle size test of crystal form I (micrometer particle size analyzer MS3000, dry method); format: physicochemical; details: particle size analysis
Source text: The particle size conditions of the crystal form I of the compound of formula I used in the present disclosure are: name/model of detection instrument: micrometer particle size analyzer/MS3000; test method: dry method; sample injection rate: 50%; air pressure: 2.5 bar; slit width: 2.0 mm; refractive index: 1.52; absorption rate: 0.1; shade degree: 0.5% to 6%; background measurement time: 10 s; and sample measurement time: 10 s. The crystal obtained in Example 1 was subject to a particle size test in accordance with the above conditions.

Cc1cc(OC[P@@]2(=O)OCC[C@@H](c3cccc(Cl)c3)O2)cc(C)c1Cc1ccc(O)c(C(C)C)c1 [Example 1]
Weight gain percentage at 80% relative humidity [1]: 0.1213%
Weight gain percentage at 80% relative humidity ([1]; listed as crystal form I): ≤ 0.2%
Hygroscopicity class ([1]; guidance principle of drug hygroscopicity, Appendix XIXJ of the Chinese Pharmacopoeia 2015): no or nearly no hygroscopicity
Specific Area [2]: 807.1 m^2/kg
particle size Dv10 ([2]; Dv 10): 6.41 µm
particle size Dv50 ([2]; Dv 50): 20.3 µm
particle size Dv90 ([2]; Dv 90): 48.2 µm
particle size Dv95 ([2]; Dv 95): 59.1 µm

From patent US12673964B2, “Crystal of thyroid hormone B receptor agonist, process for preparing the same and use thereof” (GANNEX PHARMA CO., LTD., priority 2020, dated 2026)
